The test system of data set [1] is spontaneously hypertensive rats. As to the kind of experiment: Telemetric measurements of blood pressure and heart rate over 24 hours in spontaneously hypertensive rats. The class given is in vivo, rat. To be noted: 3, 10 and 30 mg/kg p.o.; telemetry over 24 hours. As for the experimental part: Telemetric Measurements of Blood Pressure and Heart Rate Over 24 Hours in Spontaneously Hypertensive Rats
Measurements of 3, 10 and 30 mg of substance/1 kg of body weight/p.o.

Data set [2] has as its system anaesthetized dogs with open thorax. As to the kind of experiment: Haemodynamics in anaesthetized dogs with open thorax. The class given is in vivo, dog. From the text:
(§1) All dose amounts are i.d. (intraduodenal), unless stated otherwise.

For data set [3] the test system is unchanged. As to the kind of experiment: Nitrate interaction in anaesthetized dogs with open thorax (i.v. infusion of isosorbitol dinitrate). In kind it is in vivo, dog. To be noted: i.d., permanent i.v. infusion of isosorbitol dinitrate 50 μg/kg of body weight/hour. As for the experimental part:
Investigations of Nitrate Interaction of EMD 221829 and Sildenafil
The model and administration are as in B, but both test substances are administered with simultaneous permanent i.v. infusion of isosorbitol dinitrate (50 μg/kg of body weight/hour).

Data set [4] relates to anaesthetized dogs with closed thorax. The data set is described as follows: Blood pressure and heart rate measured at the same time in anaesthetized dogs with closed thorax. As to conditions: 1 mg/kg i.d. The class given is in vivo, dog. As for the experimental part: as §1
(§2) Measurements of Erectile Function in Anaesthetized Dogs with Closed Thorax
At the same time, the blood pressure and heart rate were measured.

Data set [5] has the same test system. As to the kind of experiment: Erectile function in anaesthetized dogs with closed thorax (pressure in corpus cavernosum rigidum). As to conditions: 1 mg of substance/1 kg of body weight i.d.; erection initiated by stimulation of the nervus pelvinus. In kind it is in vivo, dog. The protocol:
as §1, §2
Erections of various extent were initiated by stimulation variation of the nervus pelvinus. The pressure in the corpus cavernosum rigidum [CCR] was measured.

Data set [6] deals with spontaneously hypertensive rats. The data set is described as follows: Nitrate interaction in spontaneously hypertensive rats. The class given is in vivo, rat. As to conditions: i.v. cumulative 0.1, 0.3, 1, 3 or 10 mg/kg; infusion of isosorbitol dinitrate 100 μg/kg of body weight/hour. The protocol: Nitrate Interaction in Spontaneously Hypertensive Rats
Method: surgical instrumentation and measurement of blood pressure and heart rate after intravenous cumulative administration of either EMD 221829 or sildenafil (0.1, 0.3, 1, 3 or 10 mg/kg of body weight) with simultaneous infusion of isosorbitol dinitrate (100 μg/kg of body weight/hour).

For data set [7], the system named is normotensive Wistar rats. The data set is described as follows: Telemetric measurements of blood pressure and heart rate over 24 hours in normotensive Wistar rats. The class given is in vivo, rat. To be noted: 30, 100 and 300 mg/kg p.o.; telemetry over 24 hours.
Where [8] appears, read: "in this dose" (100 mg of substance/1 kg of body weight) i.d.

Structures are written as SMILES.

For the compound `COc1ccc(CNc2nc(C3CCC(C(=O)O)CC3)nc3sc4ccccc4c23)cc1Cl.NCCO` (stereo not drawn) [EMD 221829, trans-4-[4-(3-chloro-4-methoxybenzylamino)benzo[4,5]-thieno[2,3-d]pyrimidin-2-yl]cyclohexanecarboxylic acid, ethanolamine salt], the blood pressure result in data set [1] is “no change”; in data set [6] it was “no change”; in data set [7] it was “no changes”. In addition, in data set [2] (1 mg of substance/1 kg of body weight i.d.), the “haemodynamic parameters compared with sildenafil” value was “clear difference”. Moreover, the “cardiovascular side effects (reduction in blood pressure with reflex increase in heart rate)” value in data set [2] (i.d.) is “no cardiovascular side effects”. The “dose from which effects on the blood pressure and heart rate are measurable” value in data set [2] (i.d.) is ≥ 100 mg of substance/1 kg of body weight. Moreover, the “changes in blood pressure and heart rate with simultaneous administration of nitrate” value in data set [3] is listed as “no changes”. Moreover, the “effect on haemodynamic parameters (blood pressure and heart rate)” value in data set [4] is listed as “no effect”. The “stimulation of erection (pressure in the corpus cavernosum rigidum)” value in data set [5] is reported as “stimulates submaximal erection”. For the same compound, the heart rate entry in data set [6] was “no change”; in data set [7], “no changes”.
Consider `CCCc1nn(C)c2c(=O)[nH]c(-c3cc(S(=O)(=O)N4CCN(C)CC4)ccc3OCC)nc12` [sildenafil, reference compound], for which the blood pressure result in data set [1] is “significant dose-dependent reduction”; in data set [2] (setting [8]), “reduction”; in data set [6], “dose-dependent drop”; in data set [7], “significant dose-dependent reduction”. Besides, the heart rate result in data set [2] (setting [8]), in data set [6] and in data set [7] was “increase” in each case. Besides, in data set [3], the “changes in blood pressure and heart rate with simultaneous administration of nitrate” value was “significantly increased”. For the same compound, in data set [5], the “stimulation of erection (pressure in the corpus cavernosum rigidum)” value is “Corresponding results”.

Source of the values: patent US20030022906A1, “Use of pde v inhibitors” (priority 2000, published 2003).
